From patent publication US9326511B2, “Methods of inhibiting microbial biofilms” (priority 2008, dated 2016) come the findings set out here.

Structures are written as SMILES. Read-outs that look alike come from different tables or passages of the source. Marks after values point to notes of the source that are not given here.

For test [1], the system named is S. aureus SH1000 biofilms. Description: Biofilm MIC and minimum biofilm eradication concentration, Calgary Biofilm Device. The class given is cell-based, Staphylococcus aureus. The note with it: Staphylococcus aureus, SH1000BIOFILMS, biofilm MIC, read-out: bMIC. As to the method: (§1) Methods: MICs were determined for planktonic cultures by broth microdilution according to British Society for Antimicrobial Chemotherapy (BSAC) guidelines. Biofilm MICs (bMIC) and minimum biofilm eradication concentrations (MBECs) were determined using the Calgary biofilm device. The effect of Compound 10 on the viability of cold culture cells was determined by growing S. aureus SH1000 to early exponential phase at 37° C. and resuspending the cells in pre-chilled media, where they were maintained in the presence and absence of Compound 10 and control agents. The effect of Compound 10 on slow growing cells expressing the stringent response was also determined by growing cultures to early log phase and the stringent response induced by the addition of the isoleucyl-tRNA synthetase inhibitor mupirocin. Compound 10 and control agents were then added and samples recovered for viable cell determinations.
Biofilm MICs and minimum biofilm eradication concentrations (MBEC) were determined in the Calgary Biofilm Device (Nunc Inc, Roskilde, Denmark) as described by Miller et al., 2005. This involves the following steps. Aliquots (200 μL) of exponential phase cultures of strain SH1000 were added to each well of a 96-well microtitre tray. The lid assembly, which has 96 polystyrene pegs corresponding to each well, was then replaced and the system incubated for 24 hours at 37° C. on a rocking platform. Following this a biofilm of approximately 10^7 cfu matured on each peg. The lid was then washed twice in phosphate-buffered saline (PBS) to remove residual planktonic growth and then placed into a microtitre tray with fresh media containing doubling dilutions of the test antibiotic. The system was then incubated for 24 hours at 37° C. on a rocking platform. The MIC was defined as the lowest concentration of antibiotic completely inhibiting visible growth after this incubation. After the MIC was recorded, the lid assembly was again washed twice in PBS to remove planktonic cells and remaining antibiotic and then placed into fresh drug-free media. The system was incubated for a further 24 hours and the MBEC was defined as the lowest concentration of antibiotic completely inhibiting the re-establishment of planktonic growth.

Test [2] concerns Staphylococcus aureus BAA-44 (multi-drug resistant MRSA). Description: MIC and MBC of Compound 10 in the absence of light (NCCLS-based broth dilution). As to conditions: S. aureus BAA-44, subculture on nutrient agar, further 24 hours. The class given is cell-based. From the text: The minimum inhibitory concentration (MIC) for an antimicrobial agent against a specific microorganism is defined as the minimum concentration of an antibacterial agent where no apparent visible growth of the organism is observed (FDA definition of Minimum Inhibitory Concentration). MIC's are typically determined using concentrations derived traditionally from serial twofold dilutions (National Committee for Clinical Laboratory Standards (NCCLS) Handbook M7-A5: “Methods for Dilution Antimicrobial Susceptibility Tests for Bacteria that Grow Aerobically; Approved Standard—5th Edition” Volume 20 Number 2. January 2000). The MIC for Compound 10 in the absence of light was investigated, using a protocol based on the MIC protocol produced by the NCCLS (National Committee for Clinical Laboratory Standards (NCCLS) Handbook M7-A5, supra).
Staphylococcus aureus BAA-44, a multi-drug resistant Methicillin Resistant Staphylococcus aureus (MRSA) strain obtained from the ATCC catalogue, was used in this study. The following concentrations of Compound 10 were investigated: 0.764; 0.382; 0.191; 0.0955; 0.0478; 0.0239, 0.0119, 0.00597, 0.00298, 0.00149, 0.00075 & 0.00037 μg/mL. Stock solutions were made up in distilled water and serial dilutions undertaken of this to produce the required concentrations immediately prior to use […]

Test [3] concerns S. aureus SH1000 stationary phase cultures. In words: Time-kill against stationary phase cultures. The test is classed as cell-based, Staphylococcus aureus. As to conditions: early, mid and late stationary phase (24, 48, 72 hours), 10^8 bacteria/mL in spent medium. As to the method:
The anti-staphylococcal activities of Compound 10, Compound 12 and a range of comparator agents against stationary phase cultures of Staphylococcus aureus were studied using standard time-kill methodology (Oliva et al., 2003, Hobbs et al., 2008). A growth curve was constructed to identify when SH1000 cultures enter and leave stationary phase. 50 mL of Mueller-Hinton broth (MHB) was inoculated with 500 μL of Staphylococcus aureus SH1000 overnight culture and was maintained at 37° C. with agitation for 8 days. The culture turbidity at OD600 nm was measured at regular intervals using a Jenway 6300 spectrophotometer with a 1 cm light path (Jenway, Essex, UK). Staphylococcus aureus SH1000 cultures were grown to early, mid and late stationary phase at 37° C. by incubation for 24, 48 and 72 hours respectively. Cultures were centrifuged, the supernatant was removed, and then a portion of the cell pellet was resuspended in the counterpart supernatant to an OD600 nm of 0.2 (10^8 bacteria/mL). A time-kill assay was then performed on these stationary phase suspensions to study the effects of antimicrobial agents on bacterial cell viability. An untreated culture served as the negative control. The experiments were undertaken in triplicate. […]

Test [4] has as its system S. aureus SH1000. In words: Planktonic MIC by broth microdilution (BSAC guidelines). The class given is cell-based, Staphylococcus aureus. As for the experimental part: as §1
[5] abbreviates: 24 h, S. aureus SH1000, Calgary Biofilm Device, 24 hours (Table 6).

For the compound `C[N+](C)(C)CCCOc1ccc(-c2c3nc(cc4ccc([nH]4)c(-c4ccc(OCCC[N+](C)(C)C)cc4)c4nc(cc5ccc2[nH]5)C=C4)C=C3)cc1.[Cl-].[Cl-]` [Compound 10, 5,15-bis-[4-(3-Trimethylammonio-propyloxy)-phenyl]-porphyrin dichloride], the MIC in test [1] (setting [5]) came out at 1 µg/mL; in test [1] (S. aureus SH1000, Calgary device (Example H)), 1 µg/mL; in test [4] (Staphylococcus aureus, planktonic S. aureus SH1000 (Table 5), read-out: MIC) it was 1 µg/mL; in test [4] (planktonic S. aureus SH1000 (Table 6)), 1 µg/mL. Moreover, in test [2], the MBC is listed as 0.382* μg/mL. Besides, in test [3], the “bactericidal activity in time-kill (in words)” value was “retained potent bactericidal activity”.
With `C[N+](C)(C)CCCOc1cccc(-c2c3nc(cc4ccc([nH]4)c(-c4cccc(OCCC[N+](C)(C)C)c4)c4nc(cc5ccc2[nH]5)C=C4)C=C3)c1.[Cl-].[Cl-]` [Compound 12, 5,15-bis-[3-(3-Trimethylammonio-propyloxy)-phenyl]-porphyrin dichloride], the MIC came out at 1 µg/mL in test [1] (setting [5]) and 1 µg/mL in test [4] (Staphylococcus aureus, planktonic S. aureus SH1000 (Table 6), read-out: MIC). Besides, the “bactericidal activity in time-kill (in words)” value in test [3] is on record as “retained potent bactericidal activity”.
